The results in this text go back to patent publication US12043600B2, “Microbiocidal compounds” (SYNGENTA CROP PROTECTION AG, priority 2018, dated 2024).

Where two headings read alike, the source gives them in different places.

In one series the test system is Phakopsora pachyrhizi. The experiment in a line: Phakopsora pachyrhizi/Soybean/Preventative (Soybean Rust). The class given is in vivo. The note with it: foliar, 288 h, 200 ppm, soybean leaf disc preventative, compared to untreated control, read-out: control of Phakopsora pachyrhizi.
The subject of series [1] is Mycosphaerella arachidis (Cercospora arachidicola). The experiment in a line: Mycosphaerella arachidis (Cercospora arachidicola)/Liquid Culture (Early Leaf Spot). The class given is cell-based. As to conditions: liquid culture, compared to untreated control. The essentials: (§1)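 PDB + cryo-stored conidia; compound in DMSO pre-plated, spore broth added on top.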
Series [2] relates to Monographella nivalis (Microdochium nivale). The experiment in a line: Monographella nivalis (Microdochium nivale)/Liquid Culture (Foot Rot Cereals). The class given is cell-based. The note with it: liquid culture, compared to untreated control. The essentials:
as §1

For series [3], the system named is Puccinia recondita f. sp. tritici. Kind of series: Puccinia recondita f. sp. tritici/Wheat/Leaf Disc Preventative (Brown Rust). The class given is in vivo. As to conditions: foliar.
Series [4] concerns Mycosphaerella graminicola (Septoria tritici). Kind of series: Mycosphaerella graminicola (Septoria tritici)/Liquid Culture (Septoria Blotch). The class given is cell-based. As to conditions: Zymoseptoria tritici; for inhibition of growth at 20 ppm: liquid culture, compared to untreated control; for inhibition of growth at 6 ppm: M. graminicola (B19), read-out: Disease control (%). The essentials:
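Results given as % disease control: test compound in DMSO was placed in wells first, then potato dextrose broth carrying cryostored fungal conidia was added.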

For series [5], the system named is Phaeosphaeria nodorum (Septoria nodorum). The experiment in a line: Phaeosphaeria nodorum (Septoria nodorum)/Wheat/Leaf Disc Preventative (Glume Blotch). The class given is in vivo. As to conditions: Parastagonospora nodorum, foliar, wheat leaf disc preventative, compared to untreated control. The essentials:
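Preventative test: compound spray first, then spore inoculation after 2 days on cv. Kanzler wheat leaf segments. Incubation in a climate cabinet at 20 °C and 75% rh under a 12 h light/12 h dark cycle. Activity rated as % control relative to untreated discs at 5–7 days post-application.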

Series [6] relates to Magnaporthe grisea (Pyricularia oryzae). Kind of series: whole plant or invertebrate. The class given is in vivo. The note with it: foliar, read-out: control of Magnaporthe grisea.
Another series relates to Pyrenophora teres. Kind of series: Pyrenophora teres/Barley/Leaf Disc Preventative (Net Blotch). The class given is in vivo. As to conditions: foliar, 200 ppm. The source says:
Barley leaf segments cv. Hasso are placed on agar in a multiwell plate (24-well format) and sprayed with the formulated test compound diluted in water. The leaf segments are inoculated with a spore suspension of the fungus 2 days after application. […] The data are presented as the percentage of disease control of each compound for the biological tests against G. lagenarium (Example B3), P. recondita preventative (Example B13), P. teres (Example B15) and M. graminicola (Example B19) as described above. The testing rates of each biological test is specifically described in table C1 below.

Another series has as its system Plasmopara viticola. Kind of series: whole plant or invertebrate. The class given is in vivo. As to conditions: foliar, read-out: control of Plasmopara viticola.
Series [7] concerns Glomerella lagenarium (Colletotrichum lagenarium). Kind of series: Glomerella lagenarium (Colletotrichum lagenarium)/Liquid Culture (Anthracnose). The class given is cell-based. As to conditions: Colletotrichum orbiculare, liquid culture, compared to untreated control.
The test system of the next series is Phytophthora infestans. The experiment in a line: whole plant or invertebrate. The class given is in vivo. As to conditions: in Solanum lycopersicum, foliar, read-out: control of Phytophthora infestans.
The subject of series [8] is Blumeria graminis f. sp. tritici (Erysiphe graminis f. sp. tritici). The experiment in a line: Blumeria graminis f. sp. tritici/Wheat/Leaf Disc Preventative (Powdery Mildew on Wheat). As to conditions: foliar, wheat leaf disc preventative, compared to untreated control. The class given is in vivo. The essentials: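 Preventative leaf-disc test: percent disease control versus untreated leaf segments read 6-8 days post-application. Compound spray applied to wheat cv. Kanzler segments on agar one day before shaking infected plants over them; incubation at 20° C and 60% rh, 24 h darkness then 12 h light/12 h dark cycles.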

The test system of series [9] is Puccinia recondita f. sp. tritici. Kind of series: Puccinia recondita f. sp. tritici/Wheat/Leaf Disc Curative (Brown Rust). The class given is in vivo. The note with it: foliar, wheat leaf disc curative, compared to untreated control. The essentials: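 Formulated compound, diluted in water, is applied to inoculated wheat cv. Kanzler leaf segments on agar one day post-inoculation (pre-incubation dark, 19° C, 75% rh). After 6-8 days at 19° C, 75% rh and 12 h/12 h light, activity is rated as percent disease control relative to untreated segments.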

[10] abbreviates: wheat leaf disc preventative, compared to untreated control, read-out: control of Puccinia recondita f. sp. tritici.
Where [11] appears, read: barley leaf disc preventative, compared to untreated control, read-out: control of Pyrenophora teres.
Where [12] appears, read: P. recondita prev (B13), read-out: Disease control (%).
Setting [13] is: P. teres (B15), read-out: Disease control (%).

In turn, `CC#Cc1ccn(-c2ccc(C)c(O/C(=C\OC)C(=O)OC)c2)n1` [Compound E-2, methyl (Z)-3-methoxy-2-[2-methyl-5-(3-prop-1-ynylpyrazol-1-yl)phenoxy]prop-2-enoate] registered a melting point of 175 to 179 °C. For the same compound, in the series with Phakopsora pachyrhizi, the pest or weed control at 200 ppm was no less than 50%. In series [1], this compound had an inhibition of growth at 20 ppm of no less than 80%. Besides, in series [2], the inhibition of growth at 20 ppm was no less than 80%. The pest or weed control at 200 ppm in series [3] (setting [10]) was no less than 80%. Moreover, in series [4], the inhibition of growth at 20 ppm is no less than 80%. Moreover, the pest or weed control at 200 ppm in [5] was no less than 80%. For the same compound, in [6], the pest or weed control at 200 ppm was no less than 80%. The pest or weed control at 200 ppm in the series on Pyrenophora teres (setting [11]) was no less than 80%. The pest or weed control at 200 ppm in the series on Plasmopara viticola was no less than 80%.
Compound `CO/C=C(\Oc1cc(-n2cc(Cl)c(OC(C)C)n2)ccc1C)C(=O)OC` [Compound E-12, methyl (Z)-2-[5-(4-chloro-3-isopropoxy-pyrazol-1-yl)-2-methyl-phenoxy]-3-methoxy-prop-2-enoate] returned a melting point of 104 to 107 °C. In addition, the inhibition of growth at 20 ppm in [1] is no less than 80%. The inhibition of growth at 20 ppm in series [2] is no less than 80%. The pest or weed control at 200 ppm in series [3] (setting [10]) was no less than 80%. Further, in series [7], the inhibition of growth at 20 ppm was no less than 80%. Moreover, the inhibition of growth at 20 ppm in series [4] was no less than 80%. The pest or weed control at 200 ppm in series [6] is no less than 80%. In addition, the pest or weed control at 200 ppm with Pyrenophora teres (setting [11]) is no less than 80%. Further, in the series on Phytophthora infestans, the pest or weed control at 200 ppm is no less than 80%. In the series on Plasmopara viticola, the pest or weed control at 200 ppm was no less than 80%.
The compound `CO/C=C(\Oc1cc(-n2ccc(I)n2)ccc1C)C(=O)OC` [Compound E-78, methyl (Z)-2-[5-(3-iodopyrazol-1-yl)-2-methyl-phenoxy]-3-methoxy-prop-2-enoate] came in with a melting point of 156 to 159 °C. This compound registered an inhibition of growth at 20 ppm in [1] of no less than 80%. The inhibition of growth at 20 ppm in series [2] was no less than 80%. Moreover, in series [3] (setting [10]), the pest or weed control at 200 ppm is no less than 80%. Besides, the inhibition of growth at 20 ppm in [7] is no less than 80%. In series [4], this compound came in with an inhibition of growth at 20 ppm of no less than 80%. In [5], this compound returned a pest or weed control at 200 ppm of no less than 80%. Besides, the pest or weed control at 200 ppm in [6] was no less than 80%. The same compound returned a pest or weed control at 200 ppm in [8] of no less than 80%. The pest or weed control at 200 ppm in the series on Pyrenophora teres (setting [11]) is no less than 80%. Also, the pest or weed control at 200 ppm in the series on Phytophthora infestans was no less than 80%. In the series with Plasmopara viticola, the pest or weed control at 200 ppm was no less than 80%.
With `CO/C=C(\Oc1cc(-n2ccc(C#N)n2)ccc1C)C(=O)OC` [Compound E-89, methyl (Z)-2-[5-(3-cyanopyrazol-1-yl)-2-methyl-phenoxy]-3-methoxy-prop-2-enoate], the pest or weed control at 200 ppm in the series with Phakopsora pachyrhizi is no less than 50%; in series [3] (setting [10]) it was no less than 80%; in the series with Pyrenophora teres (setting [11]), no less than 80%; in the series on Plasmopara viticola, no less than 80%. The inhibition of growth at 20 ppm in series [2] and in series [4] was no less than 80% in each case.
In turn, `CO/C=C(\Oc1cc(-n2ccc(C(F)(F)F)n2)ccc1C1CC1)C(=O)OC` [Compound E-108, methyl (Z)-2-[2-cyclopropyl-5-[3-(trifluoromethyl)pyrazol-1-yl]phenoxy]-3-methoxy-prop-2-enoate] showed a melting point of 130 to 132 °C. In series [1], this compound came in with an inhibition of growth at 20 ppm of no less than 80%. The compound also yielded an inhibition of growth at 20 ppm in [2] of no less than 80%. In addition, the pest or weed control at 200 ppm in [3] (setting [10]) was no less than 80%. The compound also returned an inhibition of growth at 20 ppm in series [4] of no less than 80%. Also, the pest or weed control at 200 ppm in [8] was no less than 80%. Besides, the pest or weed control at 200 ppm in the series with Pyrenophora teres (setting [11]) was no less than 80%.
In the case of `CCc1ccc(-n2ccc(C(F)(F)F)n2)cc1O/C(=C\OC)C(=O)OC` [Compound E-109, methyl (Z)-2-[2-ethyl-5-[3-(trifluoromethyl)pyrazol-1-yl]phenoxy]-3-methoxy-prop-2-enoate], the melting point was in the range of 135 to 137 °C. The compound further gave an inhibition of growth at 20 ppm in series [1] of no less than 80%. Also, the inhibition of growth at 20 ppm in [2] was no less than 80%. The pest or weed control at 200 ppm in series [3] (setting [10]) was no less than 80%. In series [4], this compound displayed an inhibition of growth at 20 ppm of no less than 80%. In series [8], this compound came in with a pest or weed control at 200 ppm of no less than 80%. Further, the pest or weed control at 200 ppm in the series on Pyrenophora teres (setting [11]) was no less than 80%. In the series on Plasmopara viticola, the pest or weed control at 200 ppm was no less than 80%.
In the case of `CO/C=C(\Oc1cc(-n2cc(Cl)c(C3CCCCC3)n2)ccc1C)C(=O)OC` [Compound E-112, methyl (Z)-2-[5-(4-chloro-3-cyclohexyl-pyrazol-1-yl)-2-methyl-phenoxy]-3-methoxy-prop-2-enoate], the melting point fell in the range of 150 to 152 °C. Further, the inhibition of growth at 20 ppm in series [1] was no less than 80%. In series [2], the inhibition of growth at 20 ppm is no less than 80%. The compound also displayed an inhibition of growth at 20 ppm in [7] of no less than 80%. In addition, in series [5], the pest or weed control at 200 ppm is no less than 80%. Besides, in [9], the pest or weed control at 200 ppm was no less than 80%. In addition, in series [6], the pest or weed control at 200 ppm is no less than 80%. In the series with Pyrenophora teres (setting [11]), the pest or weed control at 200 ppm is no less than 80%. Moreover, the pest or weed control at 200 ppm in the series with Plasmopara viticola is no less than 80%.
In the case of `CO/C=C(\Oc1cc(-n2ccc(C3CCCCC3)n2)c(F)cc1C)C(=O)OC` [Compound E-114, methyl (Z)-2-[5-(3-cyclohexylpyrazol-1-yl)-4-fluoro-2-methyl-phenoxy]-3-methoxy-prop-2-enoate], the inhibition of growth at 20 ppm in [1], in series [2], in series [7] and in series [4] was no less than 80% each time. Also, the pest or weed control at 200 ppm (in series [3] (setting [10]); in series [5]; in [9]; in series [6]; in series [8]; in the series with Pyrenophora teres (setting [11])) was no less than 80% throughout. The pest or weed control at 200 ppm in the series with Phytophthora infestans and with Plasmopara viticola was no less than 80% each time.
On to `C=C(C)c1cnn(-c2ccc(C)c(O/C(=C\OC)C(=O)OC)c2)n1` [Compound F-11, methyl (Z)-2-[5-(4-isopropenyltriazol-2-yl)-2-methyl-phenoxy]-3-methoxy-prop-2-enoate], for which the inhibition of growth at 20 ppm in series [1], in series [2], in [7] and in series [4] was no less than 80% in each case. The pest or weed control at 200 ppm (in [3] (setting [10]); in series [5]; in [9]; in [6]; in series [8]; with Pyrenophora teres (setting [11])) was no less than 80% each time. Moreover, the pest or weed control at 200 ppm in the series on Phytophthora infestans and in the series on Plasmopara viticola was no less than 80% throughout.
Take `CO/C=C(\Oc1cc(-n2ccc(OC(C)C)n2)ccc1C)C(=O)OC` [drawing 150]: the pest or weed control at 60 ppm in [3] (setting [12]) was 100%. In addition, the inhibition of growth at 6 ppm in series [4] stood at 100%. Also, the pest or weed control at 200 ppm in the series on Pyrenophora teres (setting [13]) came out at 90%.
In the case of `CO/C=C(\Oc1cc(-n2ccc(C(F)(F)F)n2)ccc1C)C(=O)OC` [drawing 152], the pest or weed control at 60 ppm in series [3] (setting [12]) worked out at 100%. Further, the inhibition of growth at 6 ppm in series [4] amounted to 100%. For the same compound, in the series on Pyrenophora teres (setting [13]), the pest or weed control at 200 ppm was found to be 90%.
With `CO/C=C(\Oc1cccc(-n2ccc(C(F)(F)F)n2)c1)C(=O)OC` [drawing 153], the results for the pest or weed control at 200 ppm (in [3] (setting [12]); in the series with Pyrenophora teres (setting [13])) were 90% and 50%, respectively. Moreover, the inhibition of growth at 6 ppm in series [4] was found to be 70%.
Taken in the same sequence, the figures for `CO/C=C(\Oc1cccc(-n2cccc2)c1)C(=O)OC` [drawing 154, reference compound] were 0%, 0% and 20%.

As a reminder, the melting point is the temperature of the solid-liquid transition.
